Reference: patent publication US10123985B2, “Therapeutic strategies for treating mitochondrial disorders” (Whitehead Institute for Biomedical Research, priority 2015, dated 2018)
Entries after “also recorded” stand apart in the source; their conditions may differ.

Key:
[1] = test system: A172, H1299, HeLa, U87, FL5.12, and MEF cell lines; assay: Proliferation assay of a panel of cell lines treated with respiration inhibitors; assay type: cell-based; conditions: rotenone, antimycin or oligomycin plus the substance
Experimental: 143B, A172, H1299, HeLa, U87 and MEF cells were cultured in Dulbecco's Modified Eagle's Medium (DMEM) (Gibco) supplemented with 10% fetal bovine serum (FBS) and penicillin-streptomycin. FL5.12 cells were cultured in the same medium and supplemented with 5 μg/mL recombinant mouse IL-3 (R&D Systems). 143B cybrid cell lines (WT Cybrid and CytB) were cultured in DMEM with 10% FBS, penicillin-streptomycin, and 0.1 mg/mL uridine. All cells incubated at 37° C. with 5% CO2.
Adherent cell lines growing in log phase were trypsinized, counted, and plated onto 6 well dishes (Corning) in 2 mL complete DMEM and incubated overnight. Initial seeding density was 2E4 cells per well for 143B, A172, H1299, HeLa, 143B WT Cybrid, and MEFs and 3E4 cells for 143B CytB and U87 cells. The following day, one plate of cells was counted to determine the initial cell count at the time of treatment. Cells were washed 2 times with 2 mL phosphate buffered saline (PBS) and 4 mL media premixed with the indicated treatments was added. FL5.12 cells, a suspension cell line, were washed 2 times in PBS and added directly to media containing the indicated treatments and 5 μg/mL recombinant mouse IL-3. Proliferation rate assay media was DMEM without pyruvate containing 10% dialyzed FBS, penicillin-streptomycin, and 0.1 mg/mL uridine, unless otherwise noted. For these cell lines at these seeding densities it was determined that for 4 days the cells maintained logarithmic proliferation (data not shown), therefore final cell counts were measured 4 days after treatment. Cells were counted using Cellometer Auto T4 Plus Cell Counter (Nexcelom Bioscience). Proliferation rate was determined using the following formula: Proliferation Rate (Doublings per day)=(log2(Final cell count (day 5)/Initial cell count (day 1))/4 (days)

143B CytB cells = assay: Purine nucleotide extraction and LC-MS analysis; assay type: cell-based
Experimental: 143B CytB cells were seeded at 400,000 cells/well in 6 well dishes overnight. The following day, cells were washed 2 times in PBS and media was changed to proliferation assay media with or without the indicated treatments. After 15 hours polar metabolites were extracted from cells using 250 μL of ice cold 80% methanol. After scraping the cells, 250 μL of chloroform was added before vortexing for 10 min at 4° C. and centrifugation for 10 min at 4° C. at 16,000 g, 40 μL of the top, water-methanol, layer was transferred into a LC-MS tube and samples were analyzed. A Dionex UltiMate 3000 ultra-high performance liquid chromatography system connected to a Q Exactive benchtop Orbitrap mass spectrometer, equipped with an Ion Max source and a HESI II probe (Thermo Fisher Scientific) was used to quantify metabolites. Samples were separated by chromatography by injecting 10 μL of sample on a SeQuant ZIC-pHILIC Polymeric column (2.1×150 mm 5 μM, EMD Millipore). Flow rate was set to 150 μL/min, temperatures were set to 25° C. for column compartment and 4° C. for autosampler sample tray. Mobile Phase A consisted of 20 mM ammonium carbonate, 0.1% ammonium hydroxide. Mobile Phase B was 100% acetonitrile. The mobile phase gradient (% B) was set in the following protocol: 0-20 min.: linear gradient from 80% to 20% B; 20-20.5 min.: linear gradient from 20% to 80% B; 20.5-28 min.: hold at 80% B. Mobile phase was introduced into the ionization source set to the following parameters: sheath gas=40, auxiliary gas=15, sweep gas=1, spray voltage=−3.1 kV, capillary temperature=275° C., S-lens RF level=40, probe temperature=350° C. Metabolites were monitored using full scan in negative mode in the range of 285-700 m/z, with the resolution set at 140,000, the AGC target at 106, and the maximum injection time at 250 msec. Relative quantitation of metabolites was performed with XCalibur QuanBrowser 2.2 (Thermo Fisher Scientific) using a 5 ppm mass tolerance and referencing an in-house retention time library of chemical standards.

Jurkat cells = assay: Proliferation assay (Cell Titer Glo, 5 days) of wild type and knock-out Jurkat cells; assay type: cell-based, human; conditions: 5 days
Experimental: sgRNAs (oligonucleotide sequences are indicated above) were cloned into lentiCRISPR-v1 linearized with BsmBI by Gibson Assembly (NEB). sgRNA expressing vector along with lentiviral packaging vectors Delta-VPR and CMV VSVG were transfected into HEK-293T cells using the XTremeGene 9 transfection reagent (Roche). Similarly, for overexpression cell lines, cDNA vectors along with retroviral packaging vectors gag-pol and CMV VSV-G were transfected into HEK-293T cells. Media was changed 24 hours after transfection.

[2] = test system: MERRF and CYTB cybrids, 143B ρ0 cells; assay: Cell counting assay of cybrids and 143B ρ0 cells; assay type: cell-based; conditions: 6 days; for Proliferation of ETC-deficient cybrids and 143B ρ0 cells: RPMI with uridine, pyruvate (1 mM) or aspartate (10 mM); for Proliferation of ETC-defective cybrids expressing sgGOT1: uridine and pyruvate (1 mM), with or without aspartate (10 mM)
Experimental: Cybrids or 143B ρ0 cells were plated in triplicate in 12 well plates at 5,000-20,000 cells per well in 1.5 mL as described in each experiment. After six days, the entire contents of the well was trypsinized and counted using a Beckman Z2 Coulter Counter with a size selection setting of 8-30 um.
Transmitochondrial cytoplasmic hybrid cells (cybrids) are commonly used to study the mechanisms through which mutations in mitochondrial DNA (mtDNA) impair cellular function (Schon et al., 2012). These cells harbor patient-derived mitochondrial genomes with pathogenic mutations, and, like cells treated with ETC inhibitors, require pyruvate to proliferate in culture (King and Attardi, 1989, 1996). To expand upon our work with pharmacological inhibition of the ETC, we asked if aspartate supplementation rescues the proliferation of cells with genetic ETC defects. We used two patient-derived cybrid cells, the first with a homoplasmic microdeletion in the cytochrome b subunit of complex III (CYTB) associated with a form of parkinsonism and encephalopathy (De Coo et al., 1999; Rana et al., 2000), and the second with a homoplasmic point mutation in the mitochondrially encoded tRNA lysine (MT-TK) associated with myoclonic epilepsy with ragged red fibers (MERRF) (Wallace et al., 1988). To characterize the metabolic needs of these cybrids, as well as cells lacking mtDNA (143B ρ0), we cultured them in media with or without pyruvate or aspartate.

[3] = pyruvate (1 mM), phenformin, piericidin, antimycin
[4] = cells without AKB supplementation compared to AKB replete cells

SMILES | Proliferation of cell line panel with supplementation [1] | AMP level (143B CytB cells; 143B CytB cells with aspartate) | GMP level (143B CytB cells; 143B CytB cells with aspartate) | IMP level (143B CytB cells; 143B CytB cells with aspartate) | Proliferation of phenformin-treated wild-type Jurkat cells with aspartate (Jurkat cells; aspartate (10 mM) in RPMI) | Viability and proliferation of phenformin-treated GOT1-null Jurkat cells with aspartate (Jurkat cells; aspartate (10 mM) in RPMI) | Proliferation of ETC-deficient cybrids and 143B ρ0 cells [2] | Proliferation of ETC-defective cybrids expressing sgGOT1 [2] | Proliferation of ETC inhibitor-treated MDH1-null Jurkat cells with pyruvate (Jurkat cells; pyruvate (1 mM)) | Proliferation of ETC inhibitor-treated PC-null Jurkat cells with pyruvate (Jurkat cells; pyruvate (1 mM), phenformin (10 μM), antimycin (1 μM) or piericidin (0.5 μM)) | Proliferation of ETC inhibitor-treated wild type Jurkat cells with pyruvate (Jurkat cells; [3]) | Viability and proliferation of ETC inhibitor-treated GOT1-null Jurkat cells with pyruvate (Jurkat cells; [3]) | IMP level (143B CytB cells; cells cultured without AKB compared to AKB replete cells) | AMP level (143B CytB cells; [4]) | GMP level (143B CytB cells; [4]) | AMP/IMP ratio (143B CytB cells; upon AKB withdrawal) | GMP/IMP ratio (143B CytB cells; upon AKB withdrawal)
N[C@@H](CC(=O)O)C(=O)O [aspartate] | rescued ETC inhibitor-induced proliferation decreases in all other cell lines tested | restores AMP pools | not restored; also recorded: actually lower | relieves the accumulation of IMP | partially reversed the anti-proliferative effects of phenformin on wild-type cells | rescues death of GOT1-null cells upon ETC inhibition; also recorded: prevented the phenformin induced death of GOT1-null cells and even enabled these cells to proliferate in the presence of the drug | on its own enabled their proliferation; also recorded: can replace pyruvate in enabling the proliferation of patient-derived mtDNA mutant cybrids and 143B ρ0 cells | bypassed the need for GOT1; also recorded: can be bypassed by aspartate | – | – | – | – | – | – | – | – | –
CC(=O)C(=O)O [pyruvate] | – | – | – | – | – | – | proliferated in media supplemented with pyruvate | requires GOT1; also recorded: enables the proliferation of patient-derived cybrid cells in a GOT1-dependent fashion | did not stimulate aspartate synthesis or rescue proliferation; also recorded: does not rescue the proliferation of phenformin-treated MDH1 null cells | still prevented the anti-proliferative effects of ETC inhibitors; also recorded: can rescue the death of PC-null cells induced by ETC inhibition | almost completely blocked the anti-proliferative effects of several ETC inhibitors | cannot rescue death of GOT1-null cells induced by ETC inhibitors; also recorded: no beneficial effect on the GOT1-null cells | – | – | – | – | –
CCC(=O)C(=O)O [AKB, α-ketobutyrate] | sufficient to restore proliferation in the presence of ETC inhibitors | – | – | – | – | – | – | – | – | – | – | – | increased levels | decreased | decreased | dramatically decrease | dramatically decrease
